From patent US20250049812A1, “Compounds that Inhibit Necroptosis and Their Preparation Methods” (SHANGHAI INSTITUTE OF ORGANIC CHEMISTRY, CHINESE ACADEMY OF …, priority 2021, published 2025)

test system: Jurkat FADD (−/−) Cells; test: TNF-α induced necroptosis of Jurkat FADD-deficient cells (CellTiter-Glo cell survival); type: cell-based, human; conditions: Homo sapiens; TNF-α induced necroptosis, Jurkat FADD-deficient cells, 13 hours, CellTiter-Glo; read-out: IC50
Method in brief: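 Cells in RPMI 1640 with 10% FBS were pretreated for 1 h at 37 °C with compound (12-point threefold series from 25 μM, or 0.5 μM, in triplicate). They were then stimulated with TNFα added as a 5 ng/mL solution for 13 h. Survival was read by luminescence.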

Row | Compound | IC50 [nM]
1 | COC(=O)c1ncncc1-n1cc2c3c(cccc31)N(C)C(=O)C(NC(=O)c1nnc(Cc3ccccc3)[nH]1)C2 (racemic) [T-51, (±)-5-(3-(5-benzyl-4H-1,2,4-triazole-3-carboxamide)-1-methyl-2-oxo-1,2,3,4-tetrahydro-6H-azacyclo [4,3,2-cd]indol-6-yl)pyrimidine-4-carboxylic Acid Methyl Ester] | 10 to 100
2 | CN1C(=O)C(NC(=O)c2nnc(Cc3ccccc3)[nH]2)Cc2cn(-c3ncccc3C3CC3)c3cccc1c23 (racemic) [T-52, (±)-5-benzyl-N-(6-(3-cyclopropylpyridin-2-yl)-1-methyl-2-oxo-2,3,4,6-tetrahydro-1H-azacyclo [4,3,2-cd]indol-3-yl)-4H-1,2,4-triazole-3-carboxamide] | < 10
3 | CN1C(=O)C(NC(=O)c2nnc(Cc3ccccc3)[nH]2)Cc2cn(-c3ncccc3C(F)F)c3cccc1c23 (racemic) [T-53, (±)-5-benzyl-N-(6-(3-(difluoromethyl)pyridin-2-yl)-1-methyl-2-oxo-2,3,4,6-tetrahydro-1H-azacyclo [4,3,2-cd]indol-3-yl)-4H-1,2,4-triazole-3-carboxamide] | < 10
4 | CN1C(=O)C(NC(=O)c2nnc(Cc3ccccc3)[nH]2)Cc2cn(-c3ncccc3CF)c3cccc1c23 (racemic) [T-54, (±)-5-benzyl-N-(6-(3-(fluoromethyl)pyridin-2-yl)-1-methyl-2-oxo-2,3,4,6-tetrahydro-1H-azacyclo [4,3,2-cd]indol-3-yl)-4H-1,2,4-triazole-3-carboxamide] | < 10
5 | CN1C(=O)C(NC(=O)c2nnc(Cc3ccccc3)[nH]2)Cc2cn(-c3ncccc3C(C)(C)O)c3cccc1c23 (racemic) [T-55, (±)-5-benzyl-N-(6-(3-(2-hydroxypropan-2-yl)pyridin-2-yl)-1-methyl-2-oxy-2,3,4,6-tetrahydro-1H-azacyclo [4,3,2-cd]indol-3-yl)-4H-1,2,4-triazole-3-carboxamide] | 10 to 100
6 | CNC(=O)c1cccnc1-n1cc2c3c(cccc31)N(C)C(=O)C(NC(=O)c1nnc(Cc3ccccc3)[nH]1)C2 (racemic) [T-56, (±)-2-(3-(5-benzyl-4H-1,2,4-triazole-3-carboxamide)-1-methyl-2-oxy-1,2,3,4-tetrahydro-6H-azacyclo [4,3,2-cd]indol-6-yl)-N-methylnicotinamide] | 10 to 100
7 | CN(C)C(=O)c1cccnc1-n1cc2c3c(cccc31)N(C)C(=O)C(NC(=O)c1nnc(Cc3ccccc3)[nH]1)C2 (racemic) [T-57, (±)-2-(3-(5-benzyl-4H-1,2,4-triazole-3-carboxamide)-1-methyl-2-oxy-1,2,3,4-tetrahydro-6H-azacyclo [4,3,2-cd]indol-6-yl)-N,N-dimethylnicotinamide] | 100 to 1000
8 | CC(O)c1cccnc1-n1cc2c3c(cccc31)N(C)C(=O)C(NC(=O)c1nnc(Cc3ccccc3)[nH]1)C2 (racemic) [T-58, (±)-5-benzyl-N-(6-(3-(1-hydroxyethyl)pyridin-2-yl)-1-methyl-2-oxo-2,3,4,6-tetrahydro-1H-azacyclo [4,3,2-cd]indol-3-yl)-4H-1,2,4-triazole-3-carboxamide] | 10 to 100
9 | CC(=O)c1cccnc1-n1cc2c3c(cccc31)N(C)C(=O)C(NC(=O)c1nnc(Cc3ccccc3)[nH]1)C2 (racemic) [T-59, (±)-N-(6-(3-acetylpyridin-2-yl)-1-methyl-2-oxo-2,3,4,6-tetrahydro-1H-azacyclo [4,3,2-cd]indol-3-yl)-5-benzyl-4H-1,2,4-triazole-3-carboxamide] | < 10
10 | CN1C(=O)C(N2CCc3c(nn(Cc4ccccc4)c3Cl)C2=O)Cc2cn(-c3ncccc3C(F)(F)F)c3cccc1c23 (racemic) [T-60, (±)-3-(2-benzyl-3-chloro-7-oxo-2,4,5,7-tetrahydro-6H-pyrazole [3,4-c]pyridin-6-yl)-1-methyl-6(3-(trifluoromethyl)pyridin-2-yl)-1,3,4,6-tetrahydro-2H-azepine [4,3,2-cd] indole-2-one] | < 10
11 | CN1C(=O)C(NC(=O)c2nnc(Cc3ccccc3)[nH]2)Cc2cn(-c3ncccc3C(N)=O)c3cccc1c23 (racemic) [T-61, (±)-2-(3-(5-benzyl-4H-1,2,4-triazole-3-carboxamide)-1-methyl-2-oxy-1,2,3,4-tetrahydro-6H-azacyclo [4,3,2-cd]indol-6-yl)nicotinamide] | 10 to 100
12 | CN1C(=O)C(NC(=O)c2nnc(Cc3ccccc3)[nH]2)Cc2cn(-c3ncccc3Cl)c3cccc1c23 (racemic) [T-62, (±)-5-benzyl-N-(6-(3-chloropyridin-2-yl)-1-methyl-2-oxo-2,3,4,6-tetrahydro-1H-azacyclo [4,3,2-cd]indol-3-yl)-4H-1,2,4-triazole-3-carboxamide] | < 10
13 | CN1C(=O)C(NC(=O)c2ncc(Cc3ccccc3)o2)Cc2cn(-c3ncccc3C(F)(F)F)c3cccc1c23 (racemic) [T-63, (±)-5-benzyl-N-(1-methyl-2-oxo-6-(3-(trifluoromethyl)pyridin-2-yl)-2,3,4,6-tetrahydro-1H-azacyclo [4,3,2-cd]indol-3-yl) oxazole-2-carboxamide] | < 10
14 | COc1ccc(C)nc1-n1cc2c3c(cccc31)N(C)C(=O)C(NC(=O)c1nnc(Cc3ccccc3)[nH]1)C2 (racemic) [T-64, (±)-5-benzyl-N-(6-(3-methoxy-6-methylpyridin-2-yl)-1-methyl-2-oxo-2,3,4,6-tetrahydro-1H-azacyclo [4,3,2-cd]indol-3-yl)-4H-1,2,4-triazole-3-carboxamide] | < 10
15 | CC(C)c1cccnc1-n1cc2c3c(cccc31)N(C)C(=O)C(NC(=O)c1nnc(Cc3ccccc3)[nH]1)C2 (racemic) [T-65, (±)-5-benzyl-N-(6-(3-isopropylpyridin-2-yl)-1-methyl-2-oxo-2,3,4,6-tetrahydro-1H-azacyclo [4,3,2-cd]indol-3-yl)-4H-1,2,4-triazole-3-carboxamide] | 10 to 100
16 | CN1C(=O)C(NC(=O)c2nnc(Cc3ccccc3)[nH]2)Cc2cn(-c3ncccc3C(=O)OC3CC3)c3cccc1c23 (racemic) [T-66, (±)-2-(3-(5-benzyl-4H-1,2,4-triazole-3-carboxamide)-1-methyl-2-oxo-1,2,3,4-tetrahydro-6H-azacyclo [4,3,2-cd]indol-6-yl)nicotinic Acid Cyclopropane] | < 10
17 | CCOc1cccnc1-n1cc2c3c(cccc31)N(C)C(=O)C(NC(=O)c1nnc(Cc3ccccc3)[nH]1)C2 (racemic) [T-67, (±)-5-benzyl-N-(6-(3-ethoxypyridin-2-yl)-1-methyl-2-oxy-2,3,4,6-tetrahydro-1H-azacyclo [4,3,2-cd]indol-3-yl)-4H-1,2,4-triazole-3-carboxamide] | < 10
18 | CN1C(=O)C(NC(=O)c2nnc(Cc3ccccc3)[nH]2)Cc2cn(-c3ncccc3S(C)(=O)=O)c3cccc1c23 (racemic) [T-68, (±)-5-benzyl-N-(1-methyl-6-(3-(methylsulfonyl)pyridin-2-yl)-2-oxo-2,3,4,6-tetrahydro-1H-azepine [4,3,2-cd]indol-3-yl)-4H-1,2,4-triazole-3-carboxamide] | < 10
19 | CN1C(=O)C(NC(=O)c2nnc(Cc3ccccc3)[nH]2)Cc2cn(-c3ccccn3)c3cccc1c23 (racemic) [T-69, (±)-5-benzyl-N-(1-methyl-2-oxo-6-(pyridin-2-yl)-2,3,4,6-tetrahydro-1H-azacyclo [4,3,2-cd]indol-3-yl)-4H-1,2,4-triazole-3-carboxamide] | 10 to 100
20 | CN1C(=O)C(NC(=O)c2cc(Oc3ccccc3)ccn2)Cc2cn(-c3ncccc3C(F)(F)F)c3cccc1c23 (racemic) [T-70, (±)-N-(1-methyl-2-oxo-6-(3-(trifluoromethyl)pyridin-2-yl)-2,3,4,6-tetrahydro-1H-azacyclo[4,3,2-cd]indol-3-yl)-4-phenoxy Pyridinamide] | < 10
21 | CN1C(=O)C(NC(=O)c2nnc(Cc3ccccc3)[nH]2)Cc2cn(-c3ncn(C)n3)c3cccc1c23 (racemic) [T-73, (±)-5-benzyl-N-(1-methyl-6-(1-methyl-1H-1,2,4-triazole-3-yl)-2-oxo-2,3,4,6-tetrahydro-1H-azacyclo [4,3,2-cd]indol-3-yl)-4H-1,2,4-triazole-3-carboxamide] | 10 to 100
22 | CN1C(=O)C(NC(=O)c2nnc(Cc3ccccc3)[nH]2)Cc2cn(-c3cncn3C)c3cccc1c23 (racemic) [T-74, (±)-5-benzyl-N-(1-methyl-6-(1-methyl-1H-imidazol-5-yl)-2-oxo-2,3,4,6-tetrahydro-1H-azacyclo [4,3,2-cd]indol-3-yl)-4H-1,2,4-triazole-3-carboxamide] | < 10
23 | CNS(=O)(=O)c1cccnc1-n1cc2c3c(cccc31)N(C)C(=O)C(NC(=O)c1nnc(Cc3ccccc3)[nH]1)C2 (racemic) [T-75, (±)-5-benzyl-N-(1-methyl-6-(3-(N-methylsulfamoyl)pyridin-2-yl)-2-oxo-2,3,4,6-tetrahydro-1H-azacyclo [4,3,2-cd]indol-3-yl)-4H-1,2,4-triazole-3-carboxamide] | 10 to 100
24 | CN1C(=O)C(NC(=O)c2nnc(Cc3ccccc3)[nH]2)Cn2cc(C#N)c3cccc1c32 (racemic) [T-76, (±)-5-benzyl-N-(7-cyano-1-methyl-2-oxo-1,2,3,4-tetrahydro-[1,4]diazepino [3,2,1-hi]indol-3-yl)-4H-1,2,4-triazole-3-carboxamide] | 10 to 100
25 | CN1C(=O)C(NC(=O)c2nnc(Cc3ccccc3)[nH]2)Cn2cc(-c3ccnc(C(F)(F)F)c3)c3cccc1c32 (racemic) [T-77, (±)-5-benzyl-N-(1-methyl-2-oxo-7-(2-(trifluoromethyl)pyridin-4-yl)-1,2,3,4-tetrahydro-[1,4]diazepino [3,2,1-hi]indol-3-yl)-4H-1,2,4-triazole-3-carboxamide] | 100 to 1000
26 | CN1C(=O)C(NC(=O)c2nnc(Cc3ccccc3)[nH]2)Cn2cc(Br)c3ccc(Br)c1c32 (racemic) [T-79, (±)-5-benzyl-N-(7,10-dibromo-1-methyl-2-oxo-1,2,3,4-tetrahydro-[1,4]diazepino [3,2,1-hi]indol-3-yl)-4H-1,2,4-triazole-3-carboxamide] | > 1000
